Source: patent US20240082269A1, “METHODS AND PRODUCTS INCLUDING SPECIFIC CANNABINOIDS” (priority 2022, published 2024)

Assay: Four Hempson Oil studies taken together (safety, overall THCV effect)
Format: in vivo, human
Conditions: daily use of 8 mg doses of THCV over 60-180 days
Source text: The following pre-clinical and clinical research has shown that small daily oral amounts of Hempson Oil®—a hemp-extract high in cannabidiol (CBD), tetrahydrocannabivarin (THCV), and cannabidivarin (CBDV)—have consistent effects of weight loss, reduction in abdominal girth, blood sugar (HgbA1c) and blood lipid ratios. These comparative examples are shown merely for the effect the active ingredients may have upon metabolic disorders and weight loss.
The Hempson Oil Studies: from 2019 until April 2021, several independent high quality human trials were completed using an oral Hempson® oil in a micellized tincture or non-micellized oil in gel caps. All of the studies were NIH-supported. All studies were double-blind, placebo-controlled, multisite, and randomized effectiveness studies of a hemp extract, known as Hempson® oil that is high in CBD, THCV, and CBDV. The studies used either type II diabetics, obese or healthy adults. The studies done with micellized oil tincture used lower doses with micellized Hempson® oil because of increased the absorption and bioavailability of the cannabinoids.
In each study, subjects were randomly assigned to either the Hempson Oil® group (100 subjects) or the control group (50 subjects). Each subject signed a study consent form. Subjects were instructed to orally ingest this study product once daily. All subjects were instructed not to change their eating, drinking, or exercise habits for the duration of this study.
All of the study results reported below were statistically significant (p<0.05) compared to placebo results.

SMILES: CCCc1cc(O)c2c(c1)OC(C)(C)[C@@H]1CCC(C)=C[C@@H]21 [THCV, tetrahydrocannabivarin]
- A1C blood levels (diabetic measure): decrease in A1C blood levels
- Abdominal girth: decrease of abdominal girth
- Weight: statistically significant weight loss
